Measurements taken from patent publication US20200239530A1, “COMPOUNDS AND METHODS OF MODULATING PROTEIN DEGRADATION” (Vividion Therapeutics, Inc., priority 2017, published 2020).

Biological target: T1, HERC5 E3 ISG15--protein ligase HERC5 (Homo sapiens, UniProt Q9UII4)
T1 construct: Cells were resuspended in cold PBS on ice and sonicated with a probe sonicator to achieve lysis; endogenous in cells
T1 sequence (Q9UII4 1-1024): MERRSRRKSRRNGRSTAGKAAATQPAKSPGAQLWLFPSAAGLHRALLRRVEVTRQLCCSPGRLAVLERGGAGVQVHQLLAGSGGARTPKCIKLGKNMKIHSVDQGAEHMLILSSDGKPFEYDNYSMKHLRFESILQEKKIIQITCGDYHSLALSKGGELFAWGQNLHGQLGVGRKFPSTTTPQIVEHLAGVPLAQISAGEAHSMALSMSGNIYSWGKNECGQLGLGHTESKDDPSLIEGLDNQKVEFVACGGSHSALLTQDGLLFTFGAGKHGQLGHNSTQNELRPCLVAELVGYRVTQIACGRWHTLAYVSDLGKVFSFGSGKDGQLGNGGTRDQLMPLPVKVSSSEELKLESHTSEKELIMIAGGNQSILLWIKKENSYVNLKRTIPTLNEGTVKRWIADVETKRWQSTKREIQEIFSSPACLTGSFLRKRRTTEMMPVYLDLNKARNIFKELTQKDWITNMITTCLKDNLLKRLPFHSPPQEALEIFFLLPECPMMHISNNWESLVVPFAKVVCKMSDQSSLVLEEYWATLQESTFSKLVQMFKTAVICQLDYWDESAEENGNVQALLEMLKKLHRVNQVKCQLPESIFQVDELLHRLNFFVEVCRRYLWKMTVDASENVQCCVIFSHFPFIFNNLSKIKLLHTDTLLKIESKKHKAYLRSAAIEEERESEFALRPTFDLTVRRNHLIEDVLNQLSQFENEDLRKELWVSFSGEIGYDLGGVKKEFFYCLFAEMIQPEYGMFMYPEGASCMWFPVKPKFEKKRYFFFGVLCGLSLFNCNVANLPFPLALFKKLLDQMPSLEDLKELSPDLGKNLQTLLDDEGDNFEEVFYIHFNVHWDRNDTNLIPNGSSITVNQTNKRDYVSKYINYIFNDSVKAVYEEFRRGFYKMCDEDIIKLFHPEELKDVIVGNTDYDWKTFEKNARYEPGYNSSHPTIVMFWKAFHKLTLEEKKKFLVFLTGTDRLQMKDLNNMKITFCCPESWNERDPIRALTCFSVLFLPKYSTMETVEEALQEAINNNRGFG
Test: Cysteine liganding, probe competition
Format: binding
Conditions: for Liganded: HERC5 Res# 994, uniprot Q9UII4
Procedure, shortened: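 Steps: sonicate cells in cold PBS; treat 5 mg/ml lysate with compound (25° C, 1 hr); add desthiobiotin iodoacetamide probe from a 10 mM stock (25° C, 1 hr); precipitate, reduce, alkylate, digest with trypsin; capture labelled peptides on streptavidin for analysis.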

COc1ccc2c(c1)CCCN2C(=O)CCl [KB02]
Liganded: YES

O=C(CCl)Nc1cc(C(F)(F)F)cc(C(F)(F)F)c1 [KBO3]
Liganded: YES
100 Max (uniprot Q9UII4): 83.4
100 ave (uniprot Q9UII4): 83.4
500 Max (uniprot Q9UII4): 96.8
500 ave (uniprot Q9UII4): 96.8
